Measurements reported in US5229288A, “Cytotoxicity test method” (priority 1990, dated 1993).
Numbered stars: 1 amine (or outer) side, 2 acyl side, 3 side chain; on linkers, the order of the positions; unused ones are H or OH. Bridge positions count the residues as written; N and C are the ends. Square brackets hold non-standard residues; d marks the D form. Peptide text beside a SMILES is read from it. I, II: the chains in the order shown. Actinocin(9to1) = Cc1c2oc3c(C)ccc(C(=O)[*:1])c3nc-2c(C(=O)[*:2])c(N)c1=O; NMeV = CN[C@H](C(=O)O)C(C)C; Sar = CNCC(=O)O

How the values were obtained:
[1] = conventional monolayer culture on plastic tissue culture dish, morphological change under phase contrast microscope (Comparative Example); format: cell-based, human; conditions: human, skin fibroblasts; conventional monolayer culture; read-out: concentration for the detection of cytotoxicity by conventional monolayer culture
Experimental: (§1) The fibroblasts derived from human skin as used in Example 1 were cultured for 3 days on a plastic tissue culture dish (Falcon, 35 mm), and then cycloheximide and actinomycin D were added, respectively, in such an amount that the concentration of the medium would be 10 μg/ml, and the morphological change of the cells was examined under a phase contrast microscope. […] In contrast, the concentration for the detection of cytotoxicity by the conventional monolayer culture such as shown in this Comparative Example was higher than 10 μg/ml.

[2] = system: fibroblasts derived from human skin; assay: as above; format: cell-based; conditions: 10 μg/ml, monolayer cultured for 3 days before addition
Experimental: as §1

[3] = in vitro; conditions: human, skin fibroblasts
Experimental: (§2) N-Isopropylacrylamide monomer (here "NIPAAm", a product of Eastman Kodak Co.) 50 g was dissolved in 500 ml benzene. 2,2'-Azobisisobutyronitrile (here "AIBN") 0.2 g was used as the polymerization initiator. Polymerization was carried out at 60° C. for 12 hours in a stream of nitrogen gas with constant agitation. The polymer thus obtained was precipitated in benzene and after decantation the precipitates formed were dissolved in tetrahydrofuran and purified with ethyl ether. […] This mixed solution was poured on the bottom of a commercially available plastic culture dish (Falcon, 35 mm), and it was air-dried aseptically in a clean bench at about 10° C. […] Fibroblasts derived from human skin were suspended in Dulbecco's modified Eagle medium ("DMEM", a product of GIBCO, containing 10% (w/v) calf serum) (cell concentration in the suspension: about 2×10^5 cells/ml). Two milliliters of this cell suspension was incubated at 37° C., and then it was poured in the coated dish which was pre-incubated at 37° C. It was cultured at 37° C. for 3 days in an air/5 volume% CO2 gas incubator. After 3 days at which point the cultured cells covered the surface of the bottom of the dish completely, the dish was taken out from the 37° C. incubator and left to stand at 4° C. on ice. After the cell sheet was completely detached from the surface of the bottom of the dish, the old medium was discarded and the sheet was washed twice with fresh medium at 4° C. to remove the dissolved polymer and the collagen.
(§3) During the shrinking process, the cell aggregate was examined at different times by a phase contrast microscope. Size (average values of longer diameter and shorter diameter) of the cell aggregate was measured, and % shrinkage which is a relative value considering the diameter of the cell sheet immediately after the detachment as 100% was calculated, and the results were plotted against time as shown in FIG. 1.
(§4) After a cell sheet was detached and transferred onto a hydrophobic dish in the same manner as in the Control Example, cycloheximide (here "CH") was added to the culture medium for the cell sheet to bring the concentration to 0.3 and 3μg/ml of medium, respectively. The shrinkage process of the detached cell sheet was examined by the phase contrast microscopy while the cell sheet was cultured in the culture medium containing CH in the hydrophobic dish. […] At the second day after detachment, as shown in FIG. 2A by an arrow sign, the added CH was completely removed by washing the cell aggregate with fresh culture medium and then transferring it into the vessel containing fresh culture medium.
(§5) Twelve hours before a cell sheet was detached from the cell culture substrate and transferred onto a hydrophobic dish in the same manner as in Control Example, actinomycin D (here "AD") was added to the culture medium to bring the concentration to 0.003 and 0.03 μg/ml of medium, respectively. Then the shrinkage process of the detached cell sheet was examined by phase contrast microscopy while the detached cell sheet was cultured in the culture medium containing 0.003 and 0.03 μg/ml (medium) of AD, respectively, in the hydrophobic dish.

[4] = system: fibroblasts derived from human skin; assay: shrinkage of detached cell sheet to spherical cell aggregate (cytotoxicity test method of the invention), phase contrast microscopy
Experimental: as §2, §3, §4, §5

[5] = AD more than 0.03 μg/ml, added twelve hours before detachment, FIG. 2B
[6] = CH more than 3 μg/ml, added after detachment and transfer, FIG. 2A

Cc1c2oc3c(C)ccc(C(=O)N[C@@H]4C(=O)N[C@H](C(C)C)C(=O)N5CCC[C@H]5C(=O)N(C)CC(=O)N(C)[C@@H](C(C)C)C(=O)O[C@@H]4C)c3nc-2c(C(=O)N[C@@H]2C(=O)N[C@H](C(C)C)C(=O)N3CCC[C@H]3C(=O)N(C)CC(=O)N(C)[C@@H](C(C)C)C(=O)O[C@@H]2C)c(N)c1=O [AD, actinomycin D] (I: T[dV]P[Sar][NMeV] / II: T[dV]P[Sar][NMeV]; ester I:1-I:C, II:1-II:C; linker I:N-II:N via Actinocin(9to1))
MCC [1]: > 10 µg/mL | morphological change of the cells [2]: No morphological change was observed at all | MCC [3]: 0.03 µg/mL | formation of spherical cell aggregate [4, 5]: no formation of any spherical cell aggregate was observed | shrinkage behavior of phase II (0.5 th to second day after detachment) [4, 5]: significantly interrupted | shrinkage after removal of AD (reversibility) ([4]; AD removed by washing at second day after detachment, FIG. 2B): the shrinkage started again | concentration of AD which inhibits phase II relative to that of CH ([4]; ratio AD to CH): about 1/100

C[C@@H]1C[C@@H]([C@H](O)CC2CC(=O)NC(=O)C2)C(=O)[C@@H](C)C1 [CH, cycloheximide]
MCC [1]: > 10 µg/mL | morphological change of the cells [2]: No morphological change was observed at all | MCC [3]: 3 µg/mL | formation of spherical cell aggregate [4, 6]: no formation of any spherical cell aggregate was observed | shrinkage behavior of phase II (0.5 th to second day after detachment) [4, 6]: completely interrupted | shrinkage after removal of CH (reversibility) ([4]; CH removed by washing at second day after detachment, FIG. 2A): the shrinkage started again
